Measurements reported in patent US20230295200A1 (REGENTS OF THE UNIVERSITY OF MICHIGAN, priority 2022, published 2023).

The molecules below were run against T1, STAT5A (Homo sapiens, UniProt P42229) (assay: Fluorescence polarization (FP) binding assay, STAT5A). Details: FP competition, 5 nM fluorescein-labeled tracer, 200 nM protein, PBS pH7.4.
T1 sequence (P42229 1-794): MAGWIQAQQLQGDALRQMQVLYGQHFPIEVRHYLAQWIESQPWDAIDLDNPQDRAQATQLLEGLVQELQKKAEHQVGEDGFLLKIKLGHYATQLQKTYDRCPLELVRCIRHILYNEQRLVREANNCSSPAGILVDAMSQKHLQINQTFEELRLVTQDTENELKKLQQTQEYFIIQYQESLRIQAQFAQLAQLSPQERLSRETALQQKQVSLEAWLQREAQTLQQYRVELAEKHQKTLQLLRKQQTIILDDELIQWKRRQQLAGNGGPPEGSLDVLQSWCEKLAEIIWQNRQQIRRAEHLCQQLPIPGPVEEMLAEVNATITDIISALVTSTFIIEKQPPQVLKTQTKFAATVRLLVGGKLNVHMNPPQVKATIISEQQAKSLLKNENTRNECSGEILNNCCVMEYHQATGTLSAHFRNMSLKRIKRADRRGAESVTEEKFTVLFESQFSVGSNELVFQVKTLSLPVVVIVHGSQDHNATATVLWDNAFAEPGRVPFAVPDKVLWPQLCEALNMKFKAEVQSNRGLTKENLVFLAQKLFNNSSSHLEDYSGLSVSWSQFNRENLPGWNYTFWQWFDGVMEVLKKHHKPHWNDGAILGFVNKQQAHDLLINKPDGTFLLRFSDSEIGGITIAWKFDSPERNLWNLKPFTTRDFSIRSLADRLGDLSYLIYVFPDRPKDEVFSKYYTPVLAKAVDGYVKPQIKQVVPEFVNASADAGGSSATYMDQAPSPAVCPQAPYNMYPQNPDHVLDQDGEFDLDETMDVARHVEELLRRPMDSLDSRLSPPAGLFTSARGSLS
Experimental: Evaluation of the activity of the inhibitors may be accomplished by fluorescence polarization (FP) experiments. A representative general protocol is the following:
Fluorescence polarization (FP) experiments are performed in black round-bottom plates using the CLARIOstar microplate reader. To each well, fluorescein-labeled tracer and STAT5 or STAT6 protein are added in assay buffer. […] The inhibition constants are determined as the concentration of the STAT5 or STAT6 at which 50% of the ligand is bound.
Fluorescence polarization (FP) experiments were performed in 96-well, black round-bottom plates (Microfluor 2, Fisher Scientific) using the CLARIOstar microplate reader (BMG Labtech). To each well, 5 nM of fluoresceinlabeled tracer and 200 nM of STAT5 and/or STAT6 protein were added to a final volume of 100 μl in the assay buffer (PBS pH7.4+0.01% BGG+0.01% Tween-20, 2 mM DTT). The plate was mixed on a shaker for 15 m and incubated at room temperature for 1 h to reach equilibrium. […] All experimental data were analyzed using Prism 8.0 software (GraphPad Software), and the inhibition constants were determined by nonlinear curve fitting as the concentration of the STAT5 and/or STAT6 at which 50% of the ligand is bound.

Compared with `CC(C)(C)[C@H](NC(=O)c1cc2cc(C(F)(F)P(=O)(O)O)ccc2s1)C(=O)N1CCC[C@H]1C(=O)Nc1nccs1` [Compound 247, ((2-(((S)-3,3-dimethyl-1-oxo-1-((S)-2-(thiazol-2-ylcarbamoyl)pyrrolidin-1-yl)butan-2-yl)carbamoyl)benzo[b]thiophen-5-yl)difluoromethyl)phosphonic acid], `CC(C)(C)[C@H](NC(=O)c1cc2cc(C(F)(F)P(=O)(O)O)ccc2s1)C(=O)N1CCC[C@H]1C(=O)Nc1ncc(CO)s1` [Compound 248, (difluoro(2-(((S)-1-((S)-2-((5-(hydroxymethyl)thiazol-2-yl)carbamoyl)pyrrolidin-1-yl)-3,3-dimethyl-1-oxobutan-2-yl)carbamoyl)benzo[b]thiophen-5-yl)methyl)phosphonic acid] is higher in Ki: 1 to 10 µM for the first, > 10 µM for the second.

`CC(C)(C)[C@H](NC(=O)c1cc2cc(C(F)(F)P(=O)(O)O)ccc2s1)C(=O)N1CCC[C@H]1C(=O)Nc1ncc(C2CCOCC2)s1` [Compound 249, ((2-(((S)-3,3-dimethyl-1-oxo-1-((S)-2-((5-(tetrahydro-2H-pyran-4-yl)thiazol-2-yl)carbamoyl)pyrrolidin-1-yl)butan-2-yl)carbamoyl)benzo[b]thiophen-5-yl)difluoromethyl)phosphonic acid] and `CC(C)(C)[C@H](NC(=O)c1cc2cc(C(F)(F)P(=O)(O)O)ccc2s1)C(=O)N1CCC[C@H]1C(=O)Nc1ncc(C2CCCCC2)s1` [Compound 254, ((2-(((S)-1-((S)-2-((5-cyclohexylthiazol-2-yl)carbamoyl)pyrrolidin-1-yl)-3,3-dimethyl-1-oxobutan-2-yl)carbamoyl)benzo[b]thiophen-5-yl)difluoromethyl)phosphonic acid] fall in the same range of Ki: 1 to 10 µM for the first, 1 to 10 µM for the second.

First: CC(C)(C)[C@H](NC(=O)c1cc2cc(C(F)(F)P(=O)(O)O)ccc2s1)C(=O)N1CCC[C@H]1C(=O)Nc1ncc(-c2cc3ccccc3[nH]2)s1 [Compound 250, ((2-(((S)-1-((S)-2-((5-(1H-indol-2-yl)thiazol-2-yl)carbamoyl)pyrrolidin-1-yl)-3,3-dimethyl-1-oxobutan-2-yl)carbamoyl)benzo[b]thiophen-5-yl)difluoromethyl)phosphonic acid]
Second: CC(C)(C)[C@H](NC(=O)c1cc2cc(C(F)(F)P(=O)(O)O)ccc2s1)C(=O)N1CCC[C@H]1C(=O)Nc1ncc(-c2ccccc2)s1 [Compound 255, ((2-(((S)-3,3-dimethyl-1-oxo-1-((S)-2-((5-phenylthiazol-2-yl)carbamoyl)pyrrolidin-1-yl)butan-2-yl)carbamoyl)benzo[b]thiophen-5-yl)difluoromethyl)phosphonic acid]
The Ki of the first is higher: > 10 µM for the first, 0.1 to 1 µM for the second.

`CC(C)c1cnc(NC(=O)[C@@H]2CCCN2C(=O)[C@@H](NC(=O)c2cc3cc(C(F)(F)P(=O)(O)O)ccc3s2)C(C)(C)C)s1` [Compound 251, (difluoro(2-(((S)-1-((S)-2-((5-isopropylthiazol-2-yl)carbamoyl)pyrrolidin-1-yl)-3,3-dimethyl-1-oxobutan-2-yl)carbamoyl)benzo[b]thiophen-5-yl)methyl)phosphonic acid] and `CC(C)(C)c1cnc(NC(=O)[C@@H]2CCCN2C(=O)[C@@H](NC(=O)c2cc3cc(C(F)(F)P(=O)(O)O)ccc3s2)C(C)(C)C)s1` [Compound 252, ((2-(((S)-1-((S)-2-((5-(tert-butyl)thiazol-2-yl)carbamoyl)pyrrolidin-1-yl)-3,3-dimethyl-1-oxobutan-2-yl)carbamoyl)benzo[b]thiophen-5-yl)difluoromethyl)phosphonic acid] cannot be ordered by Ki: > 10 µM for the first, > 10 µM for the second.

First: CCCc1cnc(NC(=O)[C@@H]2CCCN2C(=O)[C@@H](NC(=O)c2cc3cc(C(F)(F)P(=O)(O)O)ccc3s2)C(C)(C)C)s1 [Compound 253, ((2-(((S)-3,3-dimethyl-1-oxo-1-((S)-2-((5-propylthiazol-2-yl)carbamoyl)pyrrolidin-1-yl)butan-2-yl)carbamoyl)benzo[b]thiophen-5-yl)difluoromethyl)phosphonic acid]
Second: Cc1ccccc1-c1cnc(NC(=O)[C@@H]2CCCN2C(=O)[C@@H](NC(=O)c2cc3cc(C(F)(F)P(=O)(O)O)ccc3s2)C(C)(C)C)s1 [Compound 256, ((2-(((S)-3,3-dimethyl-1-oxo-1-((S)-2-((5-(o-tolyl)thiazol-2-yl)carbamoyl)pyrrolidin-1-yl)butan-2-yl)carbamoyl)benzo[b]thiophen-5-yl)difluoromethyl)phosphonic acid]
The Ki of the first is higher: > 10 µM for the first, 1 to 10 µM for the second.

First: Cc1cccc(-c2cnc(NC(=O)[C@@H]3CCCN3C(=O)[C@@H](NC(=O)c3cc4cc(C(F)(F)P(=O)(O)O)ccc4s3)C(C)(C)C)s2)c1 [Compound 257, ((2-(((S)-3,3-dimethyl-1-oxo-1-((S)-2-((5-(m-tolyl)thiazol-2-yl)carbamoyl)pyrrolidin-1-yl)butan-2-yl)carbamoyl)benzo[b]thiophen-5-yl)difluoromethyl)phosphonic acid]
Second: CC(C)(C)[C@H](NC(=O)c1cc2cc(C(F)(F)P(=O)(O)O)ccc2s1)C(=O)N1CCC[C@H]1C(=O)Nc1ncc(-c2cccc(F)c2)s1 [Compound 260, (difluoro(2-(((S)-1-((S)-2-((5-(3-fluorophenyl)thiazol-2-yl)carbamoyl)pyrrolidin-1-yl)-3,3-dimethyl-1-oxobutan-2-yl)carbamoyl)benzo[b]thiophen-5-yl)methyl)phosphonic acid]
The Ki of the first is higher: 1 to 10 µM for the first, 0.1 to 1 µM for the second.

Compared with `Cc1ccc(-c2cnc(NC(=O)[C@@H]3CCCN3C(=O)[C@@H](NC(=O)c3cc4cc(C(F)(F)P(=O)(O)O)ccc4s3)C(C)(C)C)s2)cc1` [Compound 258, ((2-(((S)-3,3-dimethyl-1-oxo-1-((S)-2-((5-(p-tolyl)thiazol-2-yl)carbamoyl)pyrrolidin-1-yl)butan-2-yl)carbamoyl)benzo[b]thiophen-5-yl)difluoromethyl)phosphonic acid], `CC(C)(C)[C@H](NC(=O)c1cc2cc(C(F)(F)P(=O)(O)O)ccc2s1)C(=O)N1CCC[C@H]1C(=O)Nc1ncc(-c2ccc(F)cc2)s1` [Compound 261, (difluoro(2-(((S)-1-((S)-2-((5-(4-fluorophenyl)thiazol-2-yl)carbamoyl)pyrrolidin-1-yl)-3,3-dimethyl-1-oxobutan-2-yl)carbamoyl)benzo[b]thiophen-5-yl)methyl)phosphonic acid] is lower in Ki: > 10 µM for the first, 1 to 10 µM for the second. The second binds more tightly here.

`CC(C)(C)[C@H](NC(=O)c1cc2cc(C(F)(F)P(=O)(O)O)ccc2s1)C(=O)N1CCC[C@H]1C(=O)Nc1ncc(-c2ccccc2F)s1` [Compound 259, (difluoro(2-(((S)-1-((S)-2-((5-(2-fluorophenyl)thiazol-2-yl)carbamoyl)pyrrolidin-1-yl)-3,3-dimethyl-1-oxobutan-2-yl)carbamoyl)benzo[b]thiophen-5-yl)methyl)phosphonic acid] and `CC(C)(C)[C@H](NC(=O)c1cc2cc(C(F)(F)P(=O)(O)O)ccc2s1)C(=O)N1CCC[C@H]1C(=O)Nc1ncc(-c2cccc(Cl)c2)s1` [Compound 262, ((2-(((S)-1-((S)-2-((5-(3-chlorophenyl)thiazol-2-yl)carbamoyl)pyrrolidin-1-yl)-3,3-dimethyl-1-oxobutan-2-yl)carbamoyl)benzo[b]thiophen-5-yl)difluoromethyl)phosphonic acid] fall in the same range of Ki: 1 to 10 µM for the first, 1 to 10 µM for the second.

Compared with `CC(C)(C)[C@H](NC(=O)c1cc2cc(C(F)(F)P(=O)(O)O)ccc2s1)C(=O)N1CCC[C@H]1C(=O)Nc1ncc(-c2ccc(Cl)cc2)s1` [Compound 263, ((2-(((S)-1-((S)-2-((5-(4-chlorophenyl)thiazol-2-yl)carbamoyl)pyrrolidin-1-yl)-3,3-dimethyl-1-oxobutan-2-yl)carbamoyl)benzo[b]thiophen-5-yl)difluoromethyl)phosphonic acid], `CC(C)(C)[C@H](NC(=O)c1cc2cc(C(F)(F)P(=O)(O)O)ccc2s1)C(=O)N1CCC[C@H]1C(=O)Nc1ncc(-c2ccc(Br)cc2)s1` [Compound 264, ((2-(((S)-1-((S)-2-((5-(4-bromophenyl)thiazol-2-yl)carbamoyl)pyrrolidin-1-yl)-3,3-dimethyl-1-oxobutan-2-yl)carbamoyl)benzo[b]thiophen-5-yl)difluoromethyl)phosphonic acid] is lower in Ki: > 10 µM for the first, 1 to 10 µM for the second.
